The first assay relates to Lox-IMVI melanoma cell line. Kind of assay: Lox-IMVI anti-proliferative assay (growth inhibition, Cell Titer-Glo). Type of assay: cell-based, human. To be noted: Homo sapiens; IC50 activity level in the cell-based Lox-IMVI anti-proliferative assay; read-out: Activity. Summed up: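 RPMI/10% FBS; cmpd 0.5 nM–10 μM, 3-fold ×10, duplicate, 0.2% DMSO final; 72 h, 37 °C, 5% CO2. ATP-luminescence readout at t0 and 72 h. IC50 = 50% of DMSO control, 4-parameter logistic fit.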
For orientation: Cellular ATP, detected with luciferase, serves as a proxy for viable cell number.
Regarding `NC(=O)[C@H]1CC[C@@H](n2c(Nc3c(Cl)cc(Cl)cc3Cl)nc3cnc(NC4CCCC4)nc32)CC1` [Example 68, (1s,4s)-4-(2-(cyclopentylamino)-8-(2,4,6-trichlorophenylamino)-9H-purin-9-yl)cyclohexanecarboxamide], the IC50 fell in the range of 500 to 1000 nM. Same read-out and setting: in the case of `C[C@@H]1CC[C@@H](Nc2ncc3nc(Nc4c(Cl)cc(F)cc4Cl)n([C@H]4CC[C@@H](C(N)=O)CC4)c3n2)C[C@H]1O` [Example 355, (1S,4s)-4-(8-(2,6-dichloro-4-fluorophenylamino)-2-((1R,3R,4R)-3-hydroxy-4-methylcyclohexylamino)-9H-purin-9-yl)cyclohexanecarboxamide] it was > 1000 nM; in that of `NC(=O)[C@H]1CC[C@@H](n2c(Nc3c(F)cc(F)cc3F)nc3cnc(N[C@@H]4CCC[C@H](O)C4)nc32)CC1` [Example 347, (1S,4s)-4-(2-((1R,3S)-3-hydroxycyclohexylamino)-8-(2,4,6-trifluorophenylamino)-9H-purin-9-yl)cyclohexanecarboxamide], > 1000 nM; in that of `NC(=O)[C@H]1CC[C@@H](n2c(Nc3cc(Cl)ccc3F)nc3cnc(N[C@H]4COC[C@@H]4O)nc32)CC1` [Example 320, (1R,4s)-4-(8-(5-chloro-2-fluorophenylamino)-2-((3S,4R)-4-hydroxytetrahydrofuran-3-ylamino)-9H-purin-9-yl)cyclohexanecarboxamide], > 1000 nM. For `Cc1cc(Nc2nc3cnc(NC4CCOCC4)nc3n2[C@H]2CC[C@@H](C(N)=O)CC2)c(F)cc1Cl` [Example 71, (1s,4s)-4-(8-(4-chloro-2-fluoro-5-methylphenylamino)-2-(tetrahydro-2H-pyran-4-ylamino)-9H-purin-9-yl)cyclohexanecarboxamide], the IC50 was > 1000 nM. `NC(=O)[C@H]1CC[C@@H](n2c(Nc3c(F)ccc(Cl)c3F)nc3cnc(NC4CC(F)(F)C4)nc32)CC1` [Example 234, (1s,4s)-4-(8-(3-chloro-2,6-difluorophenylamino)-2-(3,3-difluorocyclobutylamino)-9H-purin-9-yl)cyclohexanecarboxamide]: the IC50 is > 1000 nM. As to `NC(=O)[C@H]1CC[C@@H](n2c(Nc3c(F)ccc(Cl)c3F)nc3cnc(NC4CC5(COC5)C4)nc32)CC1` [Example 196, (1s,4s)-4-(2-(2-oxaspiro[3.3]heptan-6-ylamino)-8-(3-chloro-2,6-difluorophenylamino)-9H-purin-9-yl)cyclohexanecarboxamide], the IC50 was > 1000 nM. Turning to `NC(=O)[C@H]1CC[C@@H](n2c(Nc3c(F)cc(F)cc3F)nc3cnc(NC4CCC(F)(F)CC4)nc32)CC1` [Example 288, (1s,4s)-4-(2-(4,4-difluorocyclohexylamino)-8-(2,4,6-trifluorophenylamino)-9H-purin-9-yl)cyclohexanecarboxamide], the IC50 was 250 to 500 nM. With `NC(=O)[C@H]1CC[C@@H](n2c(Nc3c(F)cc(F)cc3F)nc3cnc(N[C@@H]4CCOC[C@@H]4F)nc32)CC1` [Example 307, (1S,4s)-4-(2-((3R,4R)-3-fluorotetrahydro-2H-pyran-4-ylamino)-8-(2,4,6-trifluorophenylamino)-9H-purin-9-yl)cyclohexanecarboxamide], the IC50 was > 1000 nM. For the compound `NC(=O)[C@H]1CC[C@@H](n2c(Nc3c(F)cc(F)cc3Cl)nc3cnc(NC4CCCC4)nc32)CC1` [Example 119, (1s,4s)-4-(8-(2-chloro-4,6-difluorophenylamino)-2-(cyclopentylamino)-9H-purin-9-yl)cyclohexanecarboxamide], the IC50 was 250 to 500 nM.

`NC(=O)[C@H]1CC[C@@H](n2c(Nc3c(F)cc(F)cc3Cl)nc3cnc(N[C@H]4CCCOC4)nc32)CC1` [Example 245, (1R,4s)-4-(8-(2-chloro-4,6-difluorophenylamino)-2-((S)-tetrahydro-2H-pyran-3-ylamino)-9H-purin-9-yl)cyclohexanecarboxamide]: the IC50 is > 1000 nM. Take `C[C@@H](CO)Nc1ncc2nc(Nc3c(F)cc(Cl)cc3F)n([C@H]3CC[C@@H](C(N)=O)CC3)c2n1` [Example 169, (1R,4s)-4-(8-(4-chloro-2,6-difluorophenylamino)-2-((S)-1-hydroxypropan-2-ylamino)-9H-purin-9-yl)cyclohexanecarboxamide]: the IC50 fell in the range of 500 to 1000 nM. Same read-out and setting: the figure for `CS(=O)(=O)N1CCC(Nc2ncc3nc(Nc4c(Cl)cc(Cl)cc4Cl)n([C@H]4CC[C@@H](C(N)=O)CC4)c3n2)CC1` [Example 292, (1s,4s)-4-(2-(1-(methylsulfonyl)piperidin-4-ylamino)-8-(2,4,6-trichlorophenylamino)-9H-purin-9-yl)cyclohexanecarboxamide] is 500 to 1000 nM; for `CC1(C)CC[C@@H](Nc2ncc3nc(Nc4c(Cl)cc(F)cc4Cl)n([C@H]4CC[C@@H](C(N)=O)CC4)c3n2)C[C@H]1O` [Example 388, (1S,4s)-4-(8-(2,6-dichloro-4-fluorophenylamino)-2-((1R,3R)-3-hydroxy-4,4-dimethylcyclohexylamino)-9H-purin-9-yl)cyclohexanecarboxamide] it is > 1000 nM. On the same count and under the same terms, in the case of `CC[C@@H](CO)Nc1ncc2nc(Nc3c(F)cccc3Cl)n([C@H]3CC[C@@H](C(N)=O)CC3)c2n1` [Example 144, (1R,4s)-4-(8-(2-chloro-6-fluorophenylamino)-2-((S)-1-hydroxybutan-2-ylamino)-9H-purin-9-yl)cyclohexanecarboxamide] it was > 1000 nM.

Staying with this assay, now noted: Homo sapiens; Lox-IMVI anti-proliferative assay, IC50 activity level; read-out: Activity.
Regarding `C[C@]1(C(N)=O)CC[C@H](n2c(Nc3c(F)cc(F)cc3Cl)nc3cnc(NC4CCC(F)(F)CC4)nc32)CC1` [Example 477, (1r,4r)-4-(8-(2-chloro-4,6-difluorophenylamino)-2-(4,4-difluorocyclohexylamino)-9H-purin-9-yl)-1-methylcyclohexanecarboxamide], the IC50 is > 1000 nM. Same read-out and setting: in the case of `NC(=O)[C@H]1CC[C@@H](n2c(Nc3c(F)cc(F)cc3F)nc3cnc(N[C@@H]4CCO[C@H](CO)C4)nc32)CC1` [Example 446, (1S,4s)-4-(2-((2S,4R)-2-(hydroxymethyl)tetrahydro-2H-pyran-4-ylamino)-8-(2,4,6-trifluorophenylamino)-9H-purin-9-yl)cyclohexanecarboxamide] it was > 1000 nM; in that of `N#Cc1cc(Cl)c(Nc2nc3cnc(N[C@H]4CCCC[C@H]4O)nc3n2[C@H]2CC[C@@H](C(N)=O)CC2)c(Cl)c1` [Example 519, (1R,4s)-4-(8-(2,6-dichloro-4-cyanophenylamino)-2-((1S,2R)-2-hydroxycyclohexylamino)-9H-purin-9-yl)cyclohexanecarboxamide], > 1000 nM; in that of `C[C@]1(C(N)=O)CC[C@H](n2c(Nc3c(F)cc(Cl)cc3Cl)nc3cnc(NC4CCCC4)nc32)CC1` [Example 492, (1r,4r)-4-(2-(cyclopentylamino)-8-(2,4-dichloro-6-fluorophenylamino)-9H-purin-9-yl)-1-methylcyclohexanecarboxamide], 500 to 1000 nM.

As for `C[C@]1(C(N)=O)CC[C@H](n2c(Nc3c(F)cc(F)cc3Cl)nc3cnc(NC4CCCC4)nc32)CC1` [Example 491, (1r,4r)-4-(8-(2-chloro-4,6-difluorophenylamino)-2-(cyclopentylamino)-9H-purin-9-yl)-1-methylcyclohexanecarboxamide], the IC50 is > 1000 nM.

Consider `NC(=O)[C@H]1CC[C@@H](n2c(Nc3c(F)cc(Cl)cc3Cl)nc3cnc(N[C@@H]4CCC(F)(F)C4)nc32)CC1` [Example 592, (1S,4s)-4-(8-(2,4-dichloro-6-fluorophenylamino)-2-((R)-3,3-difluorocyclopentylamino)-9H-purin-9-yl)cyclohexanecarboxamide], for which the IC50 was < 250 nM.

Consider `NC(=O)[C@H]1CC[C@@H](n2c(Nc3ccc(Cl)c(F)c3F)nc3cnc(N[C@@H]4CCCC[C@H](O)C4)nc32)CC1` [Example 440, (1S,4s)-4-(8-(4-chloro-2,3-difluorophenylamino)-2-((1R,3S)-3-hydroxycycloheptylamino)-9H-purin-9-yl)cyclohexanecarboxamide], for which the IC50 was > 1000 nM.

Still in this assay, the particulars now being: Homo sapiens; Lox-IMVI melanoma cell line, anti-proliferative assay; read-out: Activity (IC50 activity level).
As to `C[C@]1(C(N)=O)CC[C@@H](n2c(Nc3c(Cl)cc(C#N)cc3Cl)nc3cnc(N[C@@H]4CCOC[C@H]4F)nc32)CC1` [Example 760, (1S,4s)-4-(8-(2,6-dichloro-4-cyanophenylamino)-2-((3S,4R)-3-fluorotetrahydro-2H-pyran-4-ylamino)-9H-purin-9-yl)-1-methylcyclohexanecarboxamide], the IC50 is < 250 nM. On the same count and under the same terms, in the case of `CCN1CCC[C@@H](Nc2ncc3nc(Nc4c(Cl)cc(C(F)(F)F)cc4Cl)n([C@H]4CC[C@@H](C(N)=O)CC4)c3n2)C1` [Example 737, (1S,4s)-4-(8-(2,6-dichloro-4-(trifluoromethyl)phenylamino)-2-((R)-1-ethylpiperidin-3-ylamino)-9H-purin-9-yl)cyclohexanecarboxamide] it was > 1000 nM. The same measure, in the same setting: in the case of `C[C@]1(C(N)=O)CC[C@@H](n2c(Nc3c(F)cc(Cl)cc3F)nc3cnc(N[C@H]4CCOC[C@H]4F)nc32)CC1` [Example 721, (1R,4s)-4-(8-(4-chloro-2,6-difluorophenylamino)-2-((3S,4S)-3-fluorotetrahydro-2H-pyran-4-ylamino)-9H-purin-9-yl)-1-methylcyclohexanecarboxamide] it was < 250 nM; in that of `Cc1ccc(S(=O)(=O)N2CCC[C@@H](Nc3ncc4nc(Nc5c(F)cc(F)cc5F)n([C@H]5CC[C@@H](C(N)=O)CC5)c4n3)C2)cc1` [Example 791, (1S,4s)-4-(2-((R)-1-tosylpiperidin-3-ylamino)-8-(2,4,6-trifluorophenylamino)-9H-purin-9-yl)cyclohexanecarboxamide], > 1000 nM. Same read-out and setting: the figure for `C[C@]1(C(N)=O)CC[C@@H](n2c(Nc3c(Cl)cc(Cl)cc3Cl)nc3cnc(N[C@H]4CC[C@H](O)C4)nc32)CC1` [Example 645, (1R,4s)-4-(2-((1S,3S)-3-hydroxycyclopentylamino)-8-(2,4,6-trichlorophenylamino)-9H-purin-9-yl)-1-methylcyclohexanecarboxamide] is 500 to 1000 nM.

(Values after patent publication US11590139B2, “Substituted aminopurine compounds, compositions thereof, and methods of treatment therewith” (Signal Pharmaceuticals, LLC, priority 2014, dated 2023).)
